In PubChem BioAssay AID330 (DTP/NCI, 2004):
Several values for one entry are separate records, joined by “and”; a condition that tells them apart may be missing. Identical values can stand only once. Toxic doses and inconclusive results are not listed. How the source made its calls: active means survival T/C of 150% or more; inactive means T/C below 125% in these data.

Tested on: P388 leukemia ip, CD2F1 mice, survival T/C
Assay: NCI In Vivo Anticancer Drug Screen. Data for tumor model P388 Leukemia (intraperitoneal) in CD2F1 (CDF1) mice
Details: endpoint: median survival time, higher = longer survival
Outline: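 Mice carrying the transplanted tumor received test compound or vehicle. Survival was recorded in each group, and the value is the treated-group measurement divided by that of the vehicle-treated control group.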

Measured: T/C

NC(Cc1cc(I)c(Oc2cc(I)c(O)c(I)c2)c(I)c1)C(=O)O (stereo not given)
inactive: dose: 0.25 mg/kg/injection, schedule: Q01DX009 (ip), vehicle: saline 99 % of control | dose: 0.5 mg/kg/injection, schedule: Q01DX009 (ip), vehicle: saline 103 % of control | dose: 1.0 mg/kg/injection, schedule: Q01DX009 (ip), vehicle: saline 99 % of control | dose: 2.0 mg/kg/injection, schedule: Q01DX009 (ip), vehicle: saline 94 % of control | dose: 4.0 mg/kg/injection, schedule: Q01DX009 (ip), vehicle: saline 88 % of control

O=CNc1c2ccccc2c(NC=O)c2ccccc12
inactive: dose: 50.0 mg/kg/injection, schedule: Q01DX005 (ip), vehicle: saline with Tween-80 92 % of control | dose: 100.0 mg/kg/injection, schedule: Q01DX005 (ip), vehicle: saline with Tween-80 88 % of control | dose: 200.0 mg/kg/injection, schedule: Q01DX005 (ip), vehicle: saline with Tween-80 101 % of control

CC(C)n1c(=S)[nH]c2ccccc2c1=O
inactive: dose: 100.0 mg/kg/injection, schedule: Q01DX009 (ip), vehicle: saline with Tween-80 90 % of control | dose: 100.0 mg/kg/injection, schedule: Q04DX003 (ip), vehicle: saline with Tween-80 95 % of control | dose: 200.0 mg/kg/injection, schedule: Q01DX009 (ip), vehicle: saline with Tween-80 90 % of control | dose: 200.0 mg/kg/injection, schedule: Q04DX003 (ip), vehicle: saline with Tween-80 95 % of control | dose: 400.0 mg/kg/injection, schedule: Q01DX009 (ip), vehicle: saline with Tween-80 95 % of control | dose: 400.0 mg/kg/injection, schedule: Q04DX003 (ip), vehicle: saline with Tween-80 91 % of control

NS(=O)(=O)c1ccc(NC(=O)CCl)cc1
inactive: dose: 12.5 mg/kg/injection, schedule: Q01DX009 (ip), vehicle: Klucel (hydroxypropylcellulose) (HPC) 110 % of control | dose: 25.0 mg/kg/injection, schedule: Q01DX009 (ip), vehicle: Klucel (hydroxypropylcellulose) (HPC) 108 % of control and 120 % of control | dose: 50.0 mg/kg/injection, schedule: Q01DX009 (ip), vehicle: Klucel (hydroxypropylcellulose) (HPC) 110 % of control and 121 % of control | dose: 100.0 mg/kg/injection, schedule: Q01DX009 (ip), vehicle: Klucel (hydroxypropylcellulose) (HPC) 121 % of control

N#CC(=S)N(C(=O)c1ccc(Cl)cc1)c1ccccc1Cl
inactive: dose: 60.0 mg/kg/injection, schedule: Q01DX005 (ip), vehicle: Klucel + Tween-80 103 % of control | dose: 120.0 mg/kg/injection, schedule: Q01DX005 (ip), vehicle: Klucel + Tween-80 112 % of control

CC(C)=CCCC(=O)C(c1nc2n(c1O)C(=N)N=N2)c1nc2n(c1O)C(=N)N=N2 (stereo not given)
inactive: dose: 60.0 mg/kg/injection, schedule: Q01DX005 (ip), vehicle: saline 95 % of control | dose: 120.0 mg/kg/injection, schedule: Q01DX005 (ip), vehicle: saline 97 % of control | dose: 240.0 mg/kg/injection, schedule: Q01DX005 (ip), vehicle: saline 97 % of control

CC(=O)Nc1ccn(C)c1[N+](=O)[O-]
inactive: dose: 100.0 mg/kg/injection, schedule: Q01DX001 (ip), vehicle: Klucel (hydroxypropylcellulose) (HPC) 100 % of control | dose: 200.0 mg/kg/injection, schedule: Q01DX001 (ip), vehicle: Klucel (hydroxypropylcellulose) (HPC) 97 % of control | dose: 400.0 mg/kg/injection, schedule: Q01DX001 (ip), vehicle: Klucel (hydroxypropylcellulose) (HPC) 102 % of control

Cc1ccc(/C=C2/C/C(=C\c3ccc(C)cc3)C2=O)cc1
inactive: dose: 12.5 mg/kg/injection, schedule: Q04DX003 (ip), vehicle: Klucel (hydroxypropylcellulose) (HPC) 94 % of control | dose: 25.0 mg/kg/injection, schedule: Q04DX003 (ip), vehicle: Klucel (hydroxypropylcellulose) (HPC) 92 % of control | dose: 50.0 mg/kg/injection, schedule: Q04DX003 (ip), vehicle: Klucel (hydroxypropylcellulose) (HPC) 87 % of control | dose: 400.0 mg/kg/injection, schedule: Q04DX003 (ip), vehicle: Klucel (hydroxypropylcellulose) (HPC) 88 % of control

CSCCC(NCc1c(O)ccc2c(C)cc(=O)oc12)C(=O)O (stereo not given)
inactive: dose: 60.0 mg/kg/injection, schedule: Q01DX005 (ip), vehicle: Klucel (hydroxypropylcellulose) (HPC) 93 % of control | dose: 120.0 mg/kg/injection, schedule: Q01DX005 (ip), vehicle: Klucel (hydroxypropylcellulose) (HPC) 98 % of control | dose: 240.0 mg/kg/injection, schedule: Q01DX005 (ip), vehicle: Klucel (hydroxypropylcellulose) (HPC) 99 % of control

O=C(O)c1ccc(N2C(=O)C3C4CCC(O4)C3C2=O)cc1 (stereo not given)
inactive: dose: 6.25 mg/kg/injection, schedule: Q01DX005 (ip), vehicle: saline with Tween-80 101 % of control | dose: 12.5 mg/kg/injection, schedule: Q01DX005 (ip), vehicle: saline with Tween-80 101 % of control
